How the values were obtained:
cleaved caspase-3 [1] = experiment: Western blot of cleaved caspase-3 in H1755 cells; format: cell-based, human; conditions: 100 nM PTX, 24 hours
Procedure: (§1) H1755 and H522 cells were cultured using RPMI media that was charcoal-filtered media to remove steroids. Cell samples received one of the following treatments: vehicle control (0.1% EtOH for DEX vehicle control or 0.1% DMSO for PTX vehicle control), 100 nM DEX, 100 nM PTX, or 100 nM DEX and 100 nM PTX. At 1 hour, 4 hours, or 24 hours after drug administration, cell samples were harvested and mRNA levels of MKP-1 and SGK1 were measured via quantitative real-time polymerase chain reaction (qRT-PGR). Western blot analysis of GR, phosphorylated JNK1 (P-JNK1; phosphorylation at Thr 183 and Tyr 185), JNK1, phosphorylated c-Jun (P c-Jun; phosphorylation at Ser 73 or Ser 63), c-Jun, phosphorylated MKP1 (pMKP1; phosphorylated at Ser 359), SG1, phosphorylated MCL-1 (pMCL-1; phosphorylated at Ser 64), MCL-1, phosphorylated BCL2 (pBC1,2; phosphorylated at Ser 70), BCL2, BCLXL, cleaved caspase-3, and GAPDH (for purposes of normalization) was performed following treatment with either a vehicle control (0.1% EtOH for DEX vehicle control or 0.1% DMSO for PTX vehicle control), 100 nM DEX, 100 nM PTX, or 100 nM DEX and 100 nM PTX.
(§2) Furthermore, pro-survival markers, MCL1, BCL2, and BCLXL, were measured by Western blot to evaluate changes following treatment with DEX, PTX, or DEX and PTX. MCL1, BCL2, and BCLXL inhibit apoptosis by blocking activation of caspases, such as, caspase-3. […]

cleaved caspase-3 [2] = experiment: Western blot of cleaved caspase-3 in H522 cells; format: cell-based; conditions: 100 nM PTX, 24 hours
Procedure: as §1, §2

H1755 cells = experiment: caspase-3/7 activation (apoptosis) assay in H1755 cells; format: cell-based, human
Procedure: H1755 cells were cultured using EMEM with 10% FBS. FBS was charcoal-filtered to remove endogenous steroids. Cells were plated at 5000 cell per well and treated 24 hours after plating. H1755 cell samples treated with DEX received DEX 30 minutes prior to administration of PTX or a vehicle control. Vehicle controls are the same as those discussed in Example 1. Additionally, during PTX and/or DEX drug dosing, a caspase-3/7 activation reagent was added to the cell samples, for example, Caspase-3/7 reagent (Essen BioScience, Ann Arbor, Mich; Catalog No. 4440). Specifically, the CELLPLAYER™ Kinetic Caspase-3/7 activation assay reagents (Essen BioScience, Ann Arbor, Mich.) were used to detect caspase-3/7 activation.
At time points following PTX administration the activation of the caspase-3/7 reagent was measured with, for example, an INCUCYTE™ FLR (Essen BioScience, Ann Arbor, Mich.). […] Apoptotic or apoptosing H1755 cells (caspase-3/7 positive cells) are indicated in white, as measured by caspase-3/7 activation (FIGS. 3A-3D).
To determine the EC50 of DEX in H1755 cells, a series of PTX concentrations were evaluated for caspase-3/7 activation across a series of DEX concentrations. […]
H1755 cell samples were treated with 0, 0.43, 1.3, 4.12, 12.3, 37, 111, 333, 1000, or 3000 nM PTX. […] At time points following drug administration, caspase-3/7 activation was measured as discussed in Example 1.

[3] = tested on: phosphorylated c-Jun (Ser 73); experiment: Western blot of phosphorylated c-Jun (Ser 73) in H1755 cells; format: cell-based, human; conditions: 100 nM PTX, 4 hours
Procedure: (§3) H1755 and H522 cells were cultured using RPMI media that was charcoal-filtered media to remove steroids. Cell samples received one of the following treatments: vehicle control (0.1% EtOH for DEX vehicle control or 0.1% DMSO for PTX vehicle control), 100 nM DEX, 100 nM PTX, or 100 nM DEX and 100 nM PTX. At 1 hour, 4 hours, or 24 hours after drug administration, cell samples were harvested and mRNA levels of MKP-1 and SGK1 were measured via quantitative real-time polymerase chain reaction (qRT-PGR). […]
(§4) In addition to measuring MKP-1 and SGK1 mRNA expression, a series of proteins (and their phosphorylation status) involved in stress pathway signaling were evaluated via Western blot to measure changes following treatment with DEX, PTX, or DEX and PTX. JNK1 was measured after 2 hours of treatment, P c-Jun, c-Jun, pMPK1, and SGK1 were measured after 4 hours of treatment, and other measurements were after 24 hours of treatment. […]

MCL1 = experiment: Western blot of MCL1 and phosphorylated MCL1; format: cell-based; conditions: 100 nM PTX, 24 hours, H1755 and H522 cells
Procedure: as §1, §2

BCLXL [4] = experiment: Western blot of BCLXL in H1755 cells; format: cell-based, human; conditions: 100 nM PTX, 24 hours
Procedure: as §1, §2

BCLXL [5] = experiment: Western blot of BCLXL in H522 cells; format: cell-based; conditions: 100 nM PTX, 24 hours
Procedure: as §1, §2

[6] = tested on: phosphorylated c-Jun (Ser 73); experiment: Western blot of phosphorylated c-Jun (Ser 73) in H522 cells; format: cell-based; conditions: 100 nM PTX, 4 hours
Procedure: as §3, §4

phosphorylated BCL2 = experiment: Western blot of phosphorylated BCL2 in H1755 cells; format: cell-based, human; conditions: 100 nM PTX, 24 hours
Procedure: as §1, §2

MDA-MB-231 cells = experiment: caspase-3/7 activation (apoptosis) assay in MDA-MB-231 cells; format: cell-based; conditions: PTX 0-3000 nM alone, roughly 34.5 hours
Procedure: MDA-MB-231 cells were cultured using Eagle's minimum essential medium (EMEM) with 10% fetal bovine serum (FBS). FBS was charcoal-filtered to remove endogenous steroids. Cells were plated at 5000 cell per well and treated 24 hours after plating. PTX doses of 3000, 1000, 333.3, 111.1, 37.0, 12.3, 4.1, 1.4, 0.5, and 0 nM were evaluated. MDA-MB-231 cell samples treated with DEX received 100 nM DEX 30 minutes prior to administration of PTX or a vehicle control. The vehicle control for DEX was 0.1% ethanol, final concentration after addition. The vehicle control for PTX was 0.1% DMSO, final concentration after addition. Additionally, during PTX and/or DEX drug dosing, a caspase-3/7 activation reagent was added to the cell samples, for example, Caspase-3/7 reagent (Essen BioScience, Ann Arbor, Mich.; Catalog No. 4440). Specifically, the CELLPLAYER™ Kinetic Caspase-3/7 activation assay reagents (Essen BioScience, Ann Arbor, Mich.) were used to detect caspase-3/7 activation.
At time points following PTX administration (e.g., roughly every 3 hours) the activation of the caspase-3/7 reagent was measured with, for example, an INCUCYTE™ FLR (Essen BioScience, Ann Arbor, Mich.). Activation of caspase-3/7 is indicative of an apoptotic and/or an apoptosing cell. All concentrations of PTX, both with and without DEX, were evaluated in triplicate.

[7] = tested on: ERK, phosphorylated ERK, p38, and phosphorylated p38; experiment: Western blot of MAPK pathway proteins in H1755 and H522 cells; format: cell-based; conditions: 100 nM DEX and/or 100 nM PTX, 4 hours
Procedure: H1755 and H522 cells were analyzed by Western blot at 4 hours following administration of a vehicle control (0.1% EtOH for DEX vehicle control or 0.1% DMSO for PTX vehicle control), 100 nM DEX, 100 nM PTX, or 100 nM DEX and 100 nM PTX.

MAP TAU = experiment: Western blot of MAP TAU in H1755 cells; format: cell-based, human
Procedure: H1755 and H522 cells were analyzed by Western blot at 4 and 24 hours following administration of a vehicle control (0.1% EtOH for DEX vehicle control or 0.1% DMSO for PTX vehicle control), 100 nM DEX, 100 nM PTX, or 100 nM DEX and 100 nM PTX.

MKP-1 = experiment: qRT-PCR of MKP-1 mRNA in H1755 cells; format: cell-based, human; conditions: 100 nM DEX, H1755 cells, 1, 4 or 24 hours
Procedure: as §1

H23 cells = experiment: caspase-3/7 activation assay in H23 cells; format: cell-based; conditions: H23 cells (low level of GR expression), data not shown
SGK1 = experiment: qRT-PCR of SGK1 mRNA in H1755 cells; format: cell-based, human; conditions: 100 nM DEX, H1755 cells, 1, 4 or 24 hours
Procedure: as §1

H522 cell line = experiment: caspase-3/7 activation assay in H522 cell line; format: cell-based; conditions: 100 nM DEX, 100 nM PTX, H522 (minimal level of GR)

Row | EC50 (H1755 cells; Homo sapiens, NCI-H1755, caspase-3/7 activation, series of PTX and DEX concentrations) [nM] | Structure (SMILES) | expression of cleaved caspase-3 (cleaved caspase-3 [1]) | expression of cleaved caspase-3 (cleaved caspase-3 [2]) | level of apoptosis (caspase-3/7 activation), PTX alone (H1755 cells; 111 nM PTX) | phosphorylation of c-Jun on Ser 73 following PTX treatment [3] | phosphorylation of MCL1 (MCL1) | total expression of MCL1 (MCL1) | BCLXL expression (BCLXL [4]) | BCLXL expression (BCLXL [5]) | phosphorylation of c-Jun on Ser 73 following PTX treatment [6] | phosphorylation of BCL2 (phosphorylated BCL2) | level of apoptosis (as measured by level of caspase-3/7 activation) (MDA-MB-231 cells) | change of MAPK pathway proteins and MAPK signaling mechanisms [7] | increase of MAP TAU in cells treated with DEX and PTX (MAP TAU; 100 nM DEX and 100 nM PTX, 24 hours) [fold] | DEX-induced upregulation of MAP TAU (MAP TAU; 100 nM DEX, 24 hours after drug administration) [fold] | up-regulation of MKP-1 mRNA by DEX, maximum (MKP-1) [fold] | DEX effect on PTX-induced apoptosis (H23 cells) | up-regulation of SGK1 mRNA by DEX, maximum (SGK1) [fold] | DEX antagonism of PTX-induced apoptosis (H522 cell line)
1 | – | CC(=O)O[C@H]1C(=O)[C@@]2(C)[C@H]([C@H](OC(=O)c3ccccc3)[C@]3(O)C[C@H](OC(=O)[C@H](O)[C@@H](NC(=O)c4ccccc4)c4ccccc4)C(C)=C1C3(C)C)[C@]1(OC(C)=O)CO[C@@H]1C[C@@H]2O [PTX, paclitaxel] | increases | increases | marked increase in apoptosis | increased | up-regulated | decreasing | down-regulated | not H522 cells | increased | up-regulated | higher concentrations of PTX induced increased levels of apoptosis | minimally changed | – | – | – | – | – | –
2 | 4 | C[C@@H]1C[C@H]2[C@@H]3CCC4=CC(=O)C=C[C@]4(C)[C@@]3(F)[C@@H](O)C[C@]2(C)[C@@]1(O)C(=O)CO [DEX, dexamethasone] | – | – | – | – | – | – | – | – | – | – | – | – | 2 | 5 | 8 | no effect | 2.5 | no effect
